Measured values as given in patent US7981939B2, “Application of 2-bromide-isovanillin for the manufacture of a medicament for anti-cancer or/and radiation/chemotherapy sensitization” (Institute of Radiation Medicine, Academy of Military …, priority 2005, dated 2011).

What was measured:
[1] = tested on: leukemia cell line Jurkat; assay: Apoptosis in Jurkat cells (Hoechst 33258/FDA staining, DNA gel electrophoresis, flow cytometry); type: cell-based, human
Protocol: (§1) Human cervical cancer cell line HeLa, human liver cancer cell line HepG2/7221/7402, human ovarian cancer cell line HOC8/A2780, human glioma cell line BT325, lung cancer cell line A549, brain metastatic lung cancer cell line BT72 and normal human hepatic cell line LO2 were all grown in DMEM liquid medium supplemented with 10% newborn calf serum. Human leukemia cell line Jurkat was grown in 1640 medium supplemented with 10% newborn calf serum. The above cell lines were cultured in a CO2 incubator at 5% CO2 at 37° C.
3. Using the same procedure as described under items 1 and 2, the leukemia cells Jurkat were diluted, and plated into Petri dishes with a diameter of […], the amount of the cells adjusted depending on the concentration of 2-bromo-isovanillin to be added. Once adherence was achieved, the cells received dosages of 0, 10, 20, 30 and 40 μmol/L in triplicates. After 24 hrs of continuous action, the medium was replaced by a drug-free 1640 medium supplemented with 10% newborn calf serum. The cells were cultured for a total of 2 weeks. At the end of the culturing period, the cells were subjected to Hoechst 33258 and FDA double fluorescence staining and the results were plotted as an apoptosis curve, as shown in FIG. 4A.

[2] = tested on: ovarian cancer cell line HOC8; assay: Clonogenic assay, 6 days of continuous action, HOC8; type: cell-based, human
Protocol: as §1
(§2) By way of example, human cervical cancer cell line HeLa, lung cancer cell line A549, and ovarian cancer cell lines A2780 and HOC8 were used to determine the killing of cancer cells by 2-bromo-isovanillin for 6 days. Specifically, four groups were formed according to the type of the cancer cells. The cancer cells were diluted as appropriate, and were respectively plated into Petri dishes with a diameter of […], the amount of the cells adjusted depending on the concentration of 2-bromo-isovanillin to be added. Once adherence was achieved, each cell type received dosages of 0, 5, 10, 15, 20, 25, 30 and 35 μmol/L in triplicates. After 6 days of continuous action, the medium was replaced by a drug-free DMEM liquid medium. […] Then the cell clones were counted. The experimental data were expressed as the mean of 2-4 experiments and were plotted as a growth curve of cancer cells.

[3] = tested on: tumor cells; assay: Tumor inhibition upon administration for 6 consecutive days (summary statement)
[4] = tested on: human liver cancer cell line 7402; assay: G2/M arrest by flow cytometry, 7402; type: cell-based; details: 7402, 40 μmol/L, 24 hrs
Protocol: By way of example, human liver cancer cell lines HepG2 and 7402, human ovarian cancer cell lines HOC8 and A2780, human glioma cell line BT325, lung cancer cell line A549, brain metastatic lung cancer cell line BT72 and prostate cancer cell line IB-4 were used to investigate the G2/M arresting of solid tumor cells of different tissue origins by 2-bromo-isovanillin as measured by the ratio of cells at G2/M phase. Specifically, the cancer cells were divided into two groups, and were treated with 0 or 40 μmol/L 2-bromo-isovanillin for 24 hours. Then the cells were harvested and analyzed for changes in cell cycle and cell apoptosis by flow cytometry.

[5] = tested on: lung cancer cell line A549; assay: Clonogenic assay, 6 days of continuous action, A549; type: cell-based
Protocol: as §1, §2

[6] = tested on: normal human hepatic cell line LO2; assay: Cell cycle profile and apoptosis by flow cytometry, LO2; type: cell-based; details: LO2, 40 μmol/L, 24 hrs
Protocol: By way of example, human liver cancer cell line HepG2 and normal human hepatic cell line LO2 were used to study the inhibitory effect of 2-bromo-isovanillin on the growth of liver cancer cells and normal cells by clonogenic assay. Specifically, five groups were formed according to the drug concentration, and the liver cancer cells HepG2 and normal hepatic cells LO2 were respectively treated with 5, 10, 20, 40 and 80 μmol/L 2-bromo-isovanillin for 24 hrs. Then cell survival was measured by clonogenic assay (FIG. 8). In addition, the cell cycle profile and apoptotic effect were compared using flow cytometry.

[7] = tested on: c-myc protein; assay: c-myc protein expression by Western immunoblotting, HeLa; type: cell-based, human; details: 40 μmol/L, 0-24 hrs, decrease more remarkable with time
Protocol: The expression level of c-myc protein in human cervical cancer cell line HeLa treated with 2-bromo-isovanillin was determined by Western immunoblotting. In the Western blotting, the mouse anti-human c-myc protein monoclonal antibody SC-40 (purchased from Santa Cruz) was used as the primary antibody, and the goat anti-mouse antibody IgG-HRP (purchased from Zhongshan Reagent Co.) was used as the secondary antibody. Total proteins from human cervical cancer cells HeLa treated with 40 μmol/L 2-bromo-isovanillin for 0, 4, 8, 12, 24 hrs were extracted according to conventional methods, quantified and subjected to SDS-PAGE electrophoresis, followed by transferring to a membrane and immunoblotting, using β-actin as control.

[8] = tested on: human cervical cancer cell line HeLa; assay: MTT assay, proliferation of HeLa cells; type: cell-based
Protocol: as §1
By way of example, human cervical cancer cell line HeLa was used to study the effect of vanillin on the proliferation of cancer cells by MTT assay. Specifically, human cervical cancer cells HeLa were seeded into a 96-well plate at a density of 5×10^3 cells/well, and were divided into four groups. To each of the groups vanillin was added at a concentration of 0, 100, 250 or 500 μmol/L, respectively, and was allowed to grow for 4 days. Using the MTT assay, the optical density (OD) values at 490 nm were measured and recorded every day, wherein the OD value is indicative of the number of cells, i.e., the proliferation of cells.
By way of example, human cervical cancer cell line HeLa was used to study the effect of several vanillin derivatives for 72 hrs on the proliferation of cancer cells by MTT assay. Specifically, human cervical cancer cells HeLa were seeded into a 96-well plate at a density of 5×10^3 cells/well, and were divided into four groups. To each of the groups were added increasing concentrations (0, 10, 20, 30, 40 μmol/L) of vanillin derivatives ethyl vanillin (Code No. VAND3206), 4-methoxy vanillin (Code No. VAND3207), isovanillin (Code No. VAND3209) and 2-bromo-isovanillin (Code No. VAND3208), and the cells were cultured for 72 hrs. Using the MTT assay, the optical density (OD) values at 490 nm were measured and recorded every day, wherein the OD value is indicative of the number of cells, i.e., the proliferation of cells.
By way of example, human cervical cancer cell line HeLa was used to study the inhibitory effect of 2-bromo-isovanillin at different concentrations for different periods of time on the proliferation of cancer cells by MTT assay. Specifically, human cervical cancer cells HeLa were seeded into a 96-well plate at a density of 5×10^3 cells/well, and were divided into […]. To each of the groups 2-bromo-isovanillin was added at a concentration of 0, 10, 20, 30, 40 or 50 μmol/L, and was cultured for 14 days, respectively. Using the MTT assay, the optical density (OD) values at 490 nm were measured and recorded every day, wherein the OD value is indicative of the number of cells, i.e., the proliferation of cells.

COc1ccc(C=O)c(Br)c1O [2-bromo-isovanillin, 2-bromo-3-hydroxy-4-methoxybenzaldehyde]
apoptosis in Jurkat (flow cytometry) ([1]; 0, 20, 30 μmol/L, 24 hrs): significantly induced apoptosis | DNA gel electrophoresis finding ([1]; Jurkat, 20, 30, 40 μmol/L, 2% agarose gel): DNA fragmentation bands characteristic of apoptosis | dose inducing necrosis or M phase catastrophic death ([1]; Jurkat, 24 hrs, Hoechst 33258 and FDA double fluorescence staining): ≥ 40 µmol/L | survival rate ([2]; HOC8, 20 μmol/L): lower than 10% | proliferation ([2]; HOC8, 30 μmol/L): completely inhibited | tumor inhibition [3]: 80-95% | cell cycle effect [4]: arrested at G2/M phase | survival rate ([5]; A549, 20 μmol/L): lower than 10% | proliferation ([5]; A549, 30 μmol/L): completely inhibited | G2/M arrest and apoptosis in normal hepatic cells [6]: did not result in G2/M arrest or significant cell apoptosis | expression level of c-myc protein [7]: decreased | effect on the proliferation of HeLa cells ([8]; 20 μmol/L): remarkable inhibitory effect | effect on the proliferation of HeLa cells ([8]; 30 μmol/L or above for 4 days): completely lost their proliferative capabilities | effect on the proliferation of HeLa cells ([8]; concentrations of less than 40 μmol/L, up to 72 hrs): significant inhibition
